Experiments:
[1] = test system: Clostridium difficile infection (CDI); conditions: cited from earlier work
[2] = Short-chain fatty acid producing abilities of Composition F strains

Compound	treated patients experiencing CDI relapse ([1]; CDI patients)	preventing recurrent CDI ([1]; comparison with vancomycin)	SCFAs (short chain fatty acids produced) [2]
CCc1c(Cl)c(O)c(Cl)c(O)c1C(=O)O[C@H]1[C@H](O)[C@H](OC)[C@H](OC/C2=C\C=C\C[C@H](O)/C(C)=C/[C@H](CC)[C@@H](O[C@@H]3OC(C)(C)[C@@H](OC(=O)C(C)C)[C@H](O)[C@@H]3O)/C(C)=C/C(C)=C/C[C@@H]([C@@H](C)O)OC2=O)O[C@@H]1C [fidaxomicin]	14%	superior to vancomycin	–
Bacteroides cellulosilyticus	–	–	A, S

Source: patent US12390498B2, “Treatment of clostridium difficile infection” (Vedanta Biosciences, Inc., priority 2016, dated 2025)
